# In US7960416B2, “Stable emulsion composition” (Takeda Pharmaceutical Company Limited, priority 2001, dated 2011):
# Read-outs that look alike come from different tables or passages of the source.
# Test system: NO production
# Assay: NO production-inhibiting effect in RAW264.7 cells (nitrite ion, DAN fluorescence)
# Type: cell-based, Mouse
# Conditions: RAW264.7 cells stimulated with LPS 5 ng/ml and interferon gamma 1 U/ml, nitrite ion in culture supernatant, Compounds 1 and 3: minimum and maximum of 7 and 9 tests, read-out: IC50 (μM), NO production inhibition
# Protocol: Mouse macrophage cell line RAW264.7 was used as an iNOS-inducible cell and a test compound was examined for its % inhibition of NO production. The test compound was dissolved at 10 mM in N,N-dimethylformamide and diluted with an RPMI-1640 medium at the concentration of 0.1 mM. The concentration was further adjusted using the medium so that a final concentration ranging from 10 μM to 10 nM could be obtained by a 10-fold serial dilution and the test compound was added to a culture medium. On the day before the experiment, the cell was adjusted at 5×10^5/ml in an RPMI-1640 medium supplemented with 10% inactivated fetal calf serum and inoculated to a 96-well microplate at 1×10^5 cells/0.2 ml per well. After incubating at 37° C. under an atmosphere of 5% CO2/95% air overnight, the test compound adjusted as described above was added and then LPS and interferon gamma were added at the final concentrations of 5 ng/ml and 1 U/ml, respectively. After further incubating overnight, culture supernatants were examined for the concentration of nitrite ion (stable metabolite of NO) which was used as an index for the NO production. The nitrite ion concentration was determined by adding 25 μl of 20 μg/ml of 2,3-diaminonaphthalene (DAN) to 50 μl of the culture supernatant, followed by incubating at room temperature for 10 minutes, followed by adding 25 μl of 0.5 N NaOH, followed by determining a fluorescence at 450 nm (excitation wavelength: 365 nm). An IC50 represents the concentration of the test compound which inhibits 50% of the NO production.
Molecule,IC50 [µM],IC50 (Mus musculus) [µM]
"CCOC(=O)C1=CCCCC1S(=O)(=O)Nc1ccc(F)cc1F (stereo not drawn) [Compound 20, d-ethyl 6-[N-(2,4-difluorophenyl)sulfamoyl]-1-cyclohexene-1-carboxylate]",0.005,–
"CCOC(=O)C1=CCCCC1S(=O)(=O)Nc1ccc([N+](=O)[O-])cc1 (stereo not drawn) [Compound 5, ethyl 6-[N-(4-nitrophenyl)sulfamoyl]-1-cyclohexene-1-carboxylate]",–,3.7
"CCOC(=O)C1=CCCCC1S(=O)(=O)Nc1ccc(Cl)cc1 (stereo not drawn) [Compound 30, ethyl 6-[N-(4-chlorophenyl)sulfamoyl]-1-cyclohexene-1-carboxylate]",–,0.54
"CCOC(=O)C1=CCCCC1S(=O)(=O)Nc1ccccc1CC (stereo not drawn) [Compound 39, ethyl 6-[N-(2-ethylphenyl)sulfamoyl]-1-cyclohexene-1-carboxylate]",–,0.32
"CCOC(=O)C1=CCCCC1S(=O)(=O)Nc1cccc(Cl)c1 (stereo not drawn) [Compound 37, ethyl 6-[N-(3-chlorophenyl)sulfamoyl]-1-cyclohexene-1-carboxylate]",–,0.13
ethyl 7-[N-(2-chloro-4-fluorophenyl)sulfamoyl]-1-dycloheptene-1-carboxylate [Compound 65],0.32,–
